The source of these data is ChEMBL document CHEMBL2029241, “Synthesis, characterization and in vitro anti-tumor activities of matrine derivatives” (Bioorg Med Chem Lett, 2012).

Holding throughout (assay type): functional, cell-based
Test [1] can be described thus: Cytotoxicity against human TW03 cells after 48 hrs by MTT assay. For orientation: Tetrazolium dyes change colour on reduction, which living cells bring about.
For another test, the system named is B16-F10. Nature of the test: Cytotoxicity against mouse B16F10 cells after 48 hrs by MTT assay.
The nature of test [2]: Cytotoxicity against human HEP7402 cells after 48 hrs by MTT assay.
The next test relates to A549. The experiment in a line: Cytotoxicity against human A549 cells after 48 hrs by MTT assay.
Where [3] appears, read: Homo sapiens, A549, 48 h, read-out: IC50.
Where [4] appears, read: Homo sapiens, TW03, 48 h, read-out: IC50.
The mark [5] stands for this setting: Mus musculus, B16-F10, 48 h, read-out: IC50.
[6] abbreviates: Homo sapiens, 48 h, read-out: IC50.

≈ marks a conversion by molar mass, not a printed value.

Usually IC50 stands for the point on the concentration scale where inhibition reaches its midpoint. Take `O=C(O)CCCC1NCC2CCCN3CCCC1C23` (stereo not drawn): the IC50 result (in test [1] (tw03); with B16-F10 (b16-f10); in test [2]; in the test with A549 (a549)) was “Not Active” in each case.
As to `COC(=O)CCCC1NCC2CCCN3CCCC1C23` (stereo not drawn), the IC50 result was “Not Active” in test [1] (tw03), “Not Active” with B16-F10 (b16-f10), “Not Active” in test [2] and 31.4 µg/mL (≈ 112 µM) in the test with A549 (setting [3]).
On to `CCOC(=O)CCCC1NCC2CCCN3CCCC1C23` (stereo not drawn), for which the IC50 result is “Not Active” in test [1] (tw03), “Not Active” with B16-F10 (b16-f10), “Not Active” in test [2] and 32.3 µg/mL (≈ 110 µM) in the test on A549 (setting [3]).
Turning to `NC(=O)CCCC1NCC2CCCN3CCCC1C23` (stereo not drawn), the IC50 came to 21.7 µg/mL (≈ 81.8 µM) in test [1] (setting [4]), 12.9 µg/mL (≈ 48.6 µM) with B16-F10 (setting [5]), 11.4 µg/mL (≈ 43 µM) in test [2] (setting [6]) and 18.6 µg/mL (≈ 70.1 µM) with A549 (setting [3]).
Turning to `C1CCN2C[C@@H]3CCCN4CCC[C@@H]([C@H]34)[C@H]2C1`, the IC50 result (in test [1] (tw03); with B16-F10 (b16-f10); in test [2]; in the test on A549 (a549)) was “Not Active” in each case.
With `O=C1/C(=C/c2ccccc2)CC[C@@H]2[C@H]3CCCN4CCC[C@@H](CN12)[C@@H]34`, the IC50 in test [1] (setting [4]) is 2.4 µg/mL (≈ 7.13 µM); with B16-F10 (setting [5]), 5.7 µg/mL (≈ 16.9 µM); in test [2] (setting [6]), 10 µg/mL (≈ 29.7 µM); in the test on A549 (setting [3]), 4.6 µg/mL (≈ 13.7 µM).
As to `O=C1/C(=C/c2ccc([N+](=O)[O-])cc2)CC[C@@H]2[C@H]3CCCN4CCC[C@@H](CN12)[C@@H]34`, the IC50 was 3.7 µg/mL (≈ 9.7 µM) in test [1] (setting [4]), 2.8 µg/mL (≈ 7.34 µM) with B16-F10 (setting [5]), 8.7 µg/mL (≈ 22.8 µM) in test [2] (setting [6]) and 6.2 µg/mL (≈ 16.3 µM) with A549 (setting [3]).
Take `O=C1/C(=C/c2cccc([N+](=O)[O-])c2)CC[C@@H]2[C@H]3CCCN4CCC[C@@H](CN12)[C@@H]34`: the IC50 in test [1] (setting [4]) worked out at 2.4 µg/mL (≈ 6.29 µM); with B16-F10 (setting [5]), 8.5 µg/mL (≈ 22.3 µM); in test [2] (setting [6]), 5.3 µg/mL (≈ 13.9 µM); in the test on A549 (setting [3]), 7.6 µg/mL (≈ 19.9 µM).
In the case of `O=C1/C(=C/c2ccc(F)cc2)CC[C@@H]2[C@H]3CCCN4CCC[C@@H](CN12)[C@@H]34`, the 50% inhibitory concentration (IC50) in test [1] (setting [4]) came to 1.9 µg/mL (≈ 5.36 µM); with B16-F10 (setting [5]) it was 2.5 µg/mL (≈ 7.05 µM); in test [2] (setting [6]), 1.8 µg/mL (≈ 5.08 µM); in the test with A549 (setting [3]) it was 3 µg/mL (≈ 8.46 µM).
Consider `O=C1/C(=C/c2ccc(Cl)cc2)CC[C@@H]2[C@H]3CCCN4CCC[C@@H](CN12)[C@@H]34`, for which the IC50 was determined as 2.8 µg/mL (≈ 7.55 µM) in test [1] (setting [4]), 3.9 µg/mL (≈ 10.5 µM) in the test on B16-F10 (setting [5]), 1.6 µg/mL (≈ 4.31 µM) in test [2] (setting [6]) and 2.6 µg/mL (≈ 7.01 µM) with A549 (setting [3]).
On to `O=C1/C(=C/c2ccc(Br)cc2)CC[C@@H]2[C@H]3CCCN4CCC[C@@H](CN12)[C@@H]34`, for which the IC50 in test [1] (setting [4]) was 3.2 µg/mL (≈ 7.7 µM); in the test with B16-F10 (setting [5]), 2.6 µg/mL (≈ 6.26 µM); in test [2] (setting [6]), 0.7 µg/mL (≈ 1.69 µM); in the test with A549 (setting [3]) it was 1.9 µg/mL (≈ 4.57 µM).
Regarding `O=C1/C(=C/c2cccc(F)c2)CC[C@@H]2[C@H]3CCCN4CCC[C@@H](CN12)[C@@H]34`, the IC50 in test [1] (setting [4]) was 2.2 µg/mL (≈ 6.21 µM); in the test on B16-F10 (setting [5]), 2.7 µg/mL (≈ 7.62 µM); in test [2] (setting [6]), 1.5 µg/mL (≈ 4.23 µM); in the test with A549 (setting [3]), 3.4 µg/mL (≈ 9.59 µM).
Consider `O=C1/C(=C/c2ccc(Cl)c(Cl)c2)CC[C@@H]2[C@H]3CCCN4CCC[C@@H](CN12)[C@@H]34`, for which the IC50 in test [1] (setting [4]) was found to be 6.3 µg/mL (≈ 15.5 µM); with B16-F10 (setting [5]), 6.5 µg/mL (≈ 16 µM); in test [2] (setting [6]), 11.3 µg/mL (≈ 27.9 µM); with A549 (setting [3]) it was 4.7 µg/mL (≈ 11.6 µM).
For `COc1ccc(/C=C2\CC[C@@H]3[C@H]4CCCN5CCC[C@@H](CN3C2=O)[C@@H]45)cc1`, the IC50 worked out at 1.2 µg/mL (≈ 3.27 µM) in test [1] (setting [4]), 0.8 µg/mL (≈ 2.18 µM) in the test with B16-F10 (setting [5]), 0.5 µg/mL (≈ 1.36 µM) in test [2] (setting [6]) and 0.6 µg/mL (≈ 1.64 µM) with A549 (setting [3]).
With `COc1cccc(/C=C2\CC[C@@H]3[C@H]4CCCN5CCC[C@@H](CN3C2=O)[C@@H]45)c1`, the IC50 in test [1] (setting [4]) was 6.4 µg/mL (≈ 17.5 µM); with B16-F10 (setting [5]) it was 8.7 µg/mL (≈ 23.7 µM); in test [2] (setting [6]) it was 3.4 µg/mL (≈ 9.28 µM); in the test on A549 (setting [3]), 2.3 µg/mL (≈ 6.28 µM).
As to `COc1cc(/C=C2\CC[C@@H]3[C@H]4CCCN5CCC[C@@H](CN3C2=O)[C@@H]45)cc(OC)c1OC`, the IC50 in test [1] (setting [4]) turned out to be 5.5 µg/mL (≈ 12.9 µM); in the test with B16-F10 (setting [5]), 9.8 µg/mL (≈ 23 µM); in test [2] (setting [6]), 7.8 µg/mL (≈ 18.3 µM); in the test with A549 (setting [3]), 3.8 µg/mL (≈ 8.91 µM).
The like results for `O=C1/C(=C/c2ccncc2)CC[C@@H]2[C@H]3CCCN4CCC[C@@H](CN12)[C@@H]34` were, in that order, 4.4 µg/mL (≈ 13 µM), 6.2 µg/mL (≈ 18.4 µM), 8.6 µg/mL (≈ 25.5 µM) and 5.7 µg/mL (≈ 16.9 µM).
Turning to `O=C(c1ccccc1)C1CC[C@@H]2[C@H]3CCCN4CCC[C@@H](CN2C1=O)[C@@H]34` (stereo partly drawn), the IC50 in test [1] (setting [4]) turned out to be 2.4 µg/mL (≈ 6.81 µM); with B16-F10 (setting [5]), 10.6 µg/mL (≈ 30.1 µM); in test [2] (setting [6]), 4.3 µg/mL (≈ 12.2 µM); in the test on A549 (setting [3]) it was 3.6 µg/mL (≈ 10.2 µM).
As to `O=C(c1ccco1)C1CC[C@@H]2[C@H]3CCCN4CCC[C@@H](CN2C1=O)[C@@H]34` (stereo partly drawn), the concentration for half-maximal inhibition (IC50) is 4.9 µg/mL (≈ 14.3 µM) in test [1] (setting [4]), 12.9 µg/mL (≈ 37.7 µM) in the test with B16-F10 (setting [5]), 11.8 µg/mL (≈ 34.5 µM) in test [2] (setting [6]) and 6.6 µg/mL (≈ 19.3 µM) in the test with A549 (setting [3]).
As to `O=C(c1cccs1)C1CC[C@@H]2[C@H]3CCCN4CCC[C@@H](CN2C1=O)[C@@H]34` (stereo partly drawn), the IC50 came to 8.1 µg/mL (≈ 22.6 µM) in test [1] (setting [4]), 4.5 µg/mL (≈ 12.6 µM) with B16-F10 (setting [5]), 7.5 µg/mL (≈ 20.9 µM) in test [2] (setting [6]) and 2.3 µg/mL (≈ 6.42 µM) in the test with A549 (setting [3]).
The like results for `COc1cc2c(c(OC)c1OC)-c1ccc(OC)c(=O)cc1[C@@H](NC(C)=O)CC2` [COLCHICINE] were, in that order, 1.3 µg/mL (≈ 3.25 µM), 0.8 µg/mL (≈ 2 µM), 0.4 µg/mL (≈ 1 µM) and 0.2 µg/mL (≈ 0.501 µM).
The like results for `O=C1CCC[C@@H]2[C@H]3CCCN4CCC[C@@H](CN12)[C@@H]34` [MATRINE] were, in that order, 16.3 µg/mL (≈ 65.6 µM), 17 µg/mL (≈ 68.4 µM), 15.3 µg/mL (≈ 61.6 µM) and 9.7 µg/mL (≈ 39.1 µM).
